{
  "source": "the NIST ThermoML archive (doi:10.1021/acs.jced.7b00996)",
  "conditions": "100 kPa, Liquid; for viscosity: Capillary tube (Ostwald / Ubbelohde) method; for mass density: Vibrating tube method",
  "note": "Numbers after ± are expanded uncertainties.",
  "data": [
    {"smiles": "CCC(C)CO", "note": "(stereo unspecified) [2-methyl-1-butanol]", "values": [
      {"measurement": "viscosity", "setting": "288.15 K", "result": "6.451 ± 0.13", "unit": "mPa·s"},
      {"measurement": "mass density", "setting": "288.15 K", "result": "823.02 ± 0.61", "unit": "kg/m3"},
      {"measurement": "viscosity", "setting": "293.15 K", "result": "5.285 ± 0.11", "unit": "mPa·s"},
      {"measurement": "mass density", "setting": "293.15 K", "result": "819.56 ± 0.61", "unit": "kg/m3"},
      {"measurement": "viscosity", "setting": "298.15 K", "result": "4.492 ± 0.093", "unit": "mPa·s"},
      {"measurement": "mass density", "setting": "298.15 K", "result": "815.82 ± 0.61", "unit": "kg/m3"},
      {"measurement": "viscosity", "setting": "303.15 K", "result": "3.813 ± 0.079", "unit": "mPa·s"},
      {"measurement": "mass density", "setting": "303.15 K", "result": "812.03 ± 0.61", "unit": "kg/m3"},
      {"measurement": "viscosity", "setting": "308.15 K", "result": "3.258 ± 0.068", "unit": "mPa·s"},
      {"measurement": "mass density", "setting": "308.15 K", "result": "808.2 ± 0.61", "unit": "kg/m3"},
      {"measurement": "viscosity", "setting": "313.15 K", "result": "2.777 ± 0.058", "unit": "mPa·s"},
      {"measurement": "mass density", "setting": "313.15 K", "result": "804.33 ± 0.61", "unit": "kg/m3"},
      {"measurement": "viscosity", "setting": "318.15 K", "result": "2.375 ± 0.049", "unit": "mPa·s"},
      {"measurement": "mass density", "setting": "318.15 K", "result": "800.39 ± 0.61", "unit": "kg/m3"},
      {"measurement": "viscosity", "setting": "323.15 K", "result": "2.057 ± 0.043", "unit": "mPa·s"},
      {"measurement": "mass density", "setting": "323.15 K", "result": "796.39 ± 0.61", "unit": "kg/m3"},
      {"measurement": "viscosity", "setting": "328.15 K", "result": "1.791 ± 0.037", "unit": "mPa·s"},
      {"measurement": "mass density", "setting": "328.15 K", "result": "792.34 ± 0.61", "unit": "kg/m3"},
      {"measurement": "viscosity", "setting": "333.15 K", "result": "1.573 ± 0.033", "unit": "mPa·s"},
      {"measurement": "mass density", "setting": "333.15 K", "result": "788.2 ± 0.61", "unit": "kg/m3"},
      {"measurement": "viscosity", "setting": "338.15 K", "result": "1.377 ± 0.029", "unit": "mPa·s"},
      {"measurement": "mass density", "setting": "338.15 K", "result": "783.84 ± 0.61", "unit": "kg/m3"}
    ]},
    {"smiles": "CCCCCO", "note": "[pentan-1-ol]", "values": [
      {"measurement": "viscosity", "setting": "288.15 K", "result": "4.7 ± 0.097", "unit": "mPa·s"},
      {"measurement": "mass density", "setting": "288.15 K", "result": "818.59 ± 0.61", "unit": "kg/m3"},
      {"measurement": "viscosity", "setting": "293.15 K", "result": "4.045 ± 0.084", "unit": "mPa·s"},
      {"measurement": "mass density", "setting": "293.15 K", "result": "814.89 ± 0.61", "unit": "kg/m3"},
      {"measurement": "viscosity", "setting": "298.15 K", "result": "3.49 ± 0.072", "unit": "mPa·s"},
      {"measurement": "mass density", "setting": "298.15 K", "result": "811.23 ± 0.61", "unit": "kg/m3"},
      {"measurement": "viscosity", "setting": "303.15 K", "result": "3.034 ± 0.063", "unit": "mPa·s"},
      {"measurement": "mass density", "setting": "303.15 K", "result": "807.55 ± 0.61", "unit": "kg/m3"},
      {"measurement": "viscosity", "setting": "308.15 K", "result": "2.674 ± 0.055", "unit": "mPa·s"},
      {"measurement": "mass density", "setting": "308.15 K", "result": "803.83 ± 0.61", "unit": "kg/m3"},
      {"measurement": "viscosity", "setting": "313.15 K", "result": "2.356 ± 0.049", "unit": "mPa·s"},
      {"measurement": "mass density", "setting": "313.15 K", "result": "800.08 ± 0.61", "unit": "kg/m3"},
      {"measurement": "viscosity", "setting": "318.15 K", "result": "2.052 ± 0.043", "unit": "mPa·s"},
      {"measurement": "mass density", "setting": "318.15 K", "result": "796.29 ± 0.61", "unit": "kg/m3"},
      {"measurement": "viscosity", "setting": "323.15 K", "result": "1.811 ± 0.038", "unit": "mPa·s"},
      {"measurement": "mass density", "setting": "323.15 K", "result": "792.46 ± 0.61", "unit": "kg/m3"},
      {"measurement": "viscosity", "setting": "328.15 K", "result": "1.609 ± 0.033", "unit": "mPa·s"},
      {"measurement": "mass density", "setting": "328.15 K", "result": "788.56 ± 0.61", "unit": "kg/m3"},
      {"measurement": "viscosity", "setting": "333.15 K", "result": "1.433 ± 0.03", "unit": "mPa·s"},
      {"measurement": "mass density", "setting": "333.15 K", "result": "784.66 ± 0.61", "unit": "kg/m3"},
      {"measurement": "viscosity", "setting": "338.15 K", "result": "1.284 ± 0.027", "unit": "mPa·s"},
      {"measurement": "mass density", "setting": "338.15 K", "result": "780.7 ± 0.61", "unit": "kg/m3"}
    ]},
    {"smiles": "CCCC(C)O", "note": "(stereo unspecified) [pentan-2-ol]", "values": [
      {"measurement": "viscosity", "setting": "288.15 K", "result": "5.063 ± 0.11", "unit": "mPa·s"},
      {"measurement": "mass density", "setting": "288.15 K", "result": "813.55 ± 0.61", "unit": "kg/m3"},
      {"measurement": "viscosity", "setting": "293.15 K", "result": "4.172 ± 0.087", "unit": "mPa·s"},
      {"measurement": "mass density", "setting": "293.15 K", "result": "809.59 ± 0.61", "unit": "kg/m3"},
      {"measurement": "viscosity", "setting": "298.15 K", "result": "3.412 ± 0.071", "unit": "mPa·s"},
      {"measurement": "mass density", "setting": "298.15 K", "result": "805.55 ± 0.61", "unit": "kg/m3"},
      {"measurement": "viscosity", "setting": "303.15 K", "result": "2.825 ± 0.059", "unit": "mPa·s"},
      {"measurement": "mass density", "setting": "303.15 K", "result": "801.44 ± 0.61", "unit": "kg/m3"},
      {"measurement": "viscosity", "setting": "308.15 K", "result": "2.34 ± 0.049", "unit": "mPa·s"},
      {"measurement": "mass density", "setting": "308.15 K", "result": "797.25 ± 0.61", "unit": "kg/m3"},
      {"measurement": "viscosity", "setting": "313.15 K", "result": "1.993 ± 0.041", "unit": "mPa·s"},
      {"measurement": "mass density", "setting": "313.15 K", "result": "792.98 ± 0.61", "unit": "kg/m3"},
      {"measurement": "viscosity", "setting": "318.15 K", "result": "1.704 ± 0.035", "unit": "mPa·s"},
      {"measurement": "mass density", "setting": "318.15 K", "result": "788.63 ± 0.61", "unit": "kg/m3"},
      {"measurement": "viscosity", "setting": "323.15 K", "result": "1.475 ± 0.031", "unit": "mPa·s"},
      {"measurement": "mass density", "setting": "323.15 K", "result": "784.19 ± 0.61", "unit": "kg/m3"},
      {"measurement": "viscosity", "setting": "328.15 K", "result": "1.303 ± 0.027", "unit": "mPa·s"},
      {"measurement": "mass density", "setting": "328.15 K", "result": "779.67 ± 0.61", "unit": "kg/m3"},
      {"measurement": "viscosity", "setting": "333.15 K", "result": "1.135 ± 0.024", "unit": "mPa·s"},
      {"measurement": "mass density", "setting": "333.15 K", "result": "775.07 ± 0.61", "unit": "kg/m3"},
      {"measurement": "viscosity", "setting": "338.15 K", "result": "1.012 ± 0.021", "unit": "mPa·s"},
      {"measurement": "mass density", "setting": "338.15 K", "result": "770.37 ± 0.61", "unit": "kg/m3"}
    ]}
  ]
}
